Reference: BigSolDB 2.1

Work on COC(=O)[C@@H](N)Cc1c[nH]c2ccccc12.Cl yielded a solubility (mole fraction) (in 2-butanone, 283.2 K) of 0.000254, a solubility (mole fraction) (in 2-butanone, 288.2 K) of 0.000295 and a solubility (mole fraction) (in 2-butanone, 293.2 K) of 0.00034. It also gave a solubility (mole fraction) (in 2-butanone, 298.2 K) of 0.000401, a solubility (mole fraction) (in 2-butanone, 303.2 K) of 0.000495 and a solubility (mole fraction) (in 2-butanone, 308.2 K) of 0.00058. For the same compound, the solubility (mole fraction) (in 2-butanone, 313.2 K) was 0.000748, the solubility (mole fraction) (in 2-butanone, 318.2 K) was 0.001 and the solubility (mole fraction) (in 2-butanone, 323.2 K) was 0.00141. The solubility (mole fraction) (in acetone, 283.2 K) was 0.000289, the solubility (mole fraction) (in acetone, 288.2 K) was 0.000374 and the solubility (mole fraction) (in acetone, 293.2 K) was 0.000489. It also gave a solubility (mole fraction) (in acetone, 298.2 K) of 0.000605, a solubility (mole fraction) (in acetone, 303.2 K) of 0.000793 and a solubility (mole fraction) (in acetone, 308.2 K) of 0.00104. It also gave a solubility (mole fraction) (in acetone, 313.2 K) of 0.00144, a solubility (mole fraction) (in acetone, 318.2 K) of 0.00219 and a solubility (mole fraction) (in acetone, 323.2 K) of 0.00343. For the same compound, the solubility (mole fraction) (in acetonitrile, 283.2 K) was 3.75e-05, the solubility (mole fraction) (in acetonitrile, 288.2 K) was 4.38e-05 and the solubility (mole fraction) (in acetonitrile, 293.2 K) was 5.24e-05. For the same compound, the solubility (mole fraction) (in acetonitrile, 298.2 K) was 6.55e-05, the solubility (mole fraction) (in acetonitrile, 303.2 K) was 8.15e-05 and the solubility (mole fraction) (in acetonitrile, 308.2 K) was 0.000101. The solubility (mole fraction) (in acetonitrile, 313.2 K) was 0.000123, the solubility (mole fraction) (in acetonitrile, 318.2 K) was 0.000147 and the solubility (mole fraction) (in acetonitrile, 323.2 K) was 0.000183. For the same compound, the solubility (mole fraction) (in ethanol, 283.2 K) was 0.00608, the solubility (mole fraction) (in ethanol, 288.2 K) was 0.00634 and the solubility (mole fraction) (in ethanol, 293.2 K) was 0.00683. It also gave a solubility (mole fraction) (in ethanol, 298.2 K) of 0.00737, a solubility (mole fraction) (in ethanol, 303.2 K) of 0.00812 and a solubility (mole fraction) (in ethanol, 308.2 K) of 0.00885. The solubility (mole fraction) (in ethanol, 313.2 K) was 0.00966, the solubility (mole fraction) (in ethanol, 318.2 K) was 0.0108 and the solubility (mole fraction) (in ethanol, 323.2 K) was 0.012. It also gave a solubility (mole fraction) (in ethyl acetate, 283.2 K) of 4.01e-05, a solubility (mole fraction) (in ethyl acetate, 288.2 K) of 4.86e-05 and a solubility (mole fraction) (in ethyl acetate, 293.2 K) of 5.9e-05. It also gave a solubility (mole fraction) (in ethyl acetate, 298.2 K) of 7.36e-05, a solubility (mole fraction) (in ethyl acetate, 303.2 K) of 0.000101 and a solubility (mole fraction) (in ethyl acetate, 308.2 K) of 0.000134. The solubility (mole fraction) (in ethyl acetate, 313.2 K) was 0.000174, the solubility (mole fraction) (in ethyl acetate, 318.2 K) was 0.000226 and the solubility (mole fraction) (in ethyl acetate, 323.2 K) was 0.000296. The solubility (mole fraction) (in isobutanol, 283.2 K) was 0.00135, the solubility (mole fraction) (in isobutanol, 288.2 K) was 0.00142 and the solubility (mole fraction) (in isobutanol, 293.2 K) was 0.0015. It also gave a solubility (mole fraction) (in isobutanol, 298.2 K) of 0.00172, a solubility (mole fraction) (in isobutanol, 303.2 K) of 0.00205 and a solubility (mole fraction) (in isobutanol, 308.2 K) of 0.00245. For the same compound, the solubility (mole fraction) (in isobutanol, 313.2 K) was 0.00281, the solubility (mole fraction) (in isobutanol, 318.2 K) was 0.00326 and the solubility (mole fraction) (in isobutanol, 323.2 K) was 0.00374. The solubility (mole fraction) (in isopropanol, 283.2 K) was 0.00109, the solubility (mole fraction) (in isopropanol, 288.2 K) was 0.00122 and the solubility (mole fraction) (in isopropanol, 293.2 K) was 0.00135. The solubility (mole fraction) (in isopropanol, 298.2 K) was 0.00157, the solubility (mole fraction) (in isopropanol, 303.2 K) was 0.00176 and the solubility (mole fraction) (in isopropanol, 308.2 K) was 0.00195. For the same compound, the solubility (mole fraction) (in isopropanol, 313.2 K) was 0.0022, the solubility (mole fraction) (in isopropanol, 318.2 K) was 0.00241 and the solubility (mole fraction) (in isopropanol, 323.2 K) was 0.00273. The solubility (mole fraction) (in methanol, 283.2 K) was 0.0291, the solubility (mole fraction) (in methanol, 288.2 K) was 0.0301 and the solubility (mole fraction) (in methanol, 293.2 K) was 0.0317. It also gave a solubility (mole fraction) (in methanol, 298.2 K) of 0.0334, a solubility (mole fraction) (in methanol, 303.2 K) of 0.0354 and a solubility (mole fraction) (in methanol, 308.2 K) of 0.0379. It also gave a solubility (mole fraction) (in methanol, 313.2 K) of 0.0403, a solubility (mole fraction) (in methanol, 318.2 K) of 0.0437 and a solubility (mole fraction) (in methanol, 323.2 K) of 0.0478. It also gave a solubility (mole fraction) (in n-butanol, 283.2 K) of 0.00221, a solubility (mole fraction) (in n-butanol, 288.2 K) of 0.00231 and a solubility (mole fraction) (in n-butanol, 293.2 K) of 0.00247. It also gave a solubility (mole fraction) (in n-butanol, 298.2 K) of 0.00263, a solubility (mole fraction) (in n-butanol, 303.2 K) of 0.00281 and a solubility (mole fraction) (in n-butanol, 308.2 K) of 0.00304. It also gave a solubility (mole fraction) (in n-butanol, 313.2 K) of 0.00327, a solubility (mole fraction) (in n-butanol, 318.2 K) of 0.0035 and a solubility (mole fraction) (in n-butanol, 323.2 K) of 0.00385. The solubility (mole fraction) (in n-propanol, 283.2 K) was 0.00303, the solubility (mole fraction) (in n-propanol, 288.2 K) was 0.00322 and the solubility (mole fraction) (in n-propanol, 293.2 K) was 0.00348. For the same compound, the solubility (mole fraction) (in n-propanol, 298.2 K) was 0.00376, the solubility (mole fraction) (in n-propanol, 303.2 K) was 0.00401 and the solubility (mole fraction) (in n-propanol, 308.2 K) was 0.00431. For the same compound, the solubility (mole fraction) (in n-propanol, 313.2 K) was 0.00465, the solubility (mole fraction) (in n-propanol, 318.2 K) was 0.00512 and the solubility (mole fraction) (in n-propanol, 323.2 K) was 0.00574. It also gave a solubility (mole fraction) (in sec-butanol, 283.2 K) of 0.0013, a solubility (mole fraction) (in sec-butanol, 288.2 K) of 0.00135 and a solubility (mole fraction) (in sec-butanol, 293.2 K) of 0.00149. For the same compound, the solubility (mole fraction) (in sec-butanol, 298.2 K) was 0.00165, the solubility (mole fraction) (in sec-butanol, 303.2 K) was 0.00183 and the solubility (mole fraction) (in sec-butanol, 308.2 K) was 0.00206. It also gave a solubility (mole fraction) (in sec-butanol, 313.2 K) of 0.00227, a solubility (mole fraction) (in sec-butanol, 318.2 K) of 0.00251 and a solubility (mole fraction) (in sec-butanol, 323.2 K) of 0.00296. For the same compound, the solubility (mole fraction) (in water, 283.2 K) was 0.00839, the solubility (mole fraction) (in water, 288.2 K) was 0.00951 and the solubility (mole fraction) (in water, 293.2 K) was 0.0107. It also gave a solubility (mole fraction) (in water, 298.2 K) of 0.0125, a solubility (mole fraction) (in water, 303.2 K) of 0.015 and a solubility (mole fraction) (in water, 308.2 K) of 0.0175. It also gave a solubility (mole fraction) (in water, 313.2 K) of 0.02, a solubility (mole fraction) (in water, 318.2 K) of 0.024 and a solubility (mole fraction) (in water, 323.2 K) of 0.0278.
